According to the NIST ThermoML archive (doi:10.1021/je1003466):
“And” between values parts separate entries of the source, which are not always exact repeats. Equal values may be shown once. Numbers after ± are expanded uncertainties.

Assay: mn = molality of the nth substance listed, in mol/kg
Settings: 298.15 K, 101 kPa, Liquid

CNC=O [N-methylformamide] + O
Settings | mass density
m1 = 0.1996 | 997.54 ± 0.31 kg/m3
m1 = 0.2 | 997.53 ± 0.31 kg/m3 and 997.55 ± 0.31 kg/m3
m1 = 0.3493 | 997.91 ± 0.31 kg/m3
m1 = 0.5018 | 998.28 ± 0.32 kg/m3
m1 = 0.5044 | 998.28 ± 0.32 kg/m3
m1 = 0.5343 | 998.34 ± 0.32 kg/m3
m1 = 0.9779 | 999.42 ± 0.34 kg/m3
m1 = 0.9919 | 999.46 ± 0.34 kg/m3
m1 = 1.011 | 999.49 ± 0.34 kg/m3
m1 = 1.499 | 1000.63 ± 0.37 kg/m3
m1 = 1.5 | 1000.62 ± 0.37 kg/m3
m1 = 1.505 | 1000.65 ± 0.37 kg/m3
m1 = 2.006 | 1001.79 ± 0.4 kg/m3
m1 = 2.011 | 1001.79 ± 0.4 kg/m3
m1 = 2.012 | 1001.79 ± 0.4 kg/m3
m1 = 2.47 | 1002.77 ± 0.44 kg/m3
m1 = 2.497 | 1002.77 ± 0.44 kg/m3
m1 = 2.513 | 1002.86 ± 0.44 kg/m3
m1 = 3.022 | 1003.9 ± 0.48 kg/m3
m1 = 3.05 | 1003.95 ± 0.48 kg/m3
m1 = 3.068 | 1004 ± 0.48 kg/m3
m1 = 3.496 | 1004.81 ± 0.52 kg/m3
m1 = 3.499 | 1004.82 ± 0.52 kg/m3 and 1004.81 ± 0.52 kg/m3
m1 = 3.989 | 1005.73 ± 0.57 kg/m3
m1 = 3.992 | 1005.74 ± 0.57 kg/m3
m1 = 3.997 | 1005.73 ± 0.57 kg/m3
